The record followed here is ChEMBL document CHEMBL4402545, “Subtype Selective γ-Aminobutyric Acid Type A Receptor (GABAAR) Modulators Acting at the Benzodiazepine Binding Site: An Update” (J Med Chem, 2020).

pKi: −log10 of the molar value.

Assay [1] addresses T1, Gamma-aminobutyric acid receptor subunit alpha-2 (Homo sapiens, UniProt P47869).
T1 sequence (P47869 whole entry): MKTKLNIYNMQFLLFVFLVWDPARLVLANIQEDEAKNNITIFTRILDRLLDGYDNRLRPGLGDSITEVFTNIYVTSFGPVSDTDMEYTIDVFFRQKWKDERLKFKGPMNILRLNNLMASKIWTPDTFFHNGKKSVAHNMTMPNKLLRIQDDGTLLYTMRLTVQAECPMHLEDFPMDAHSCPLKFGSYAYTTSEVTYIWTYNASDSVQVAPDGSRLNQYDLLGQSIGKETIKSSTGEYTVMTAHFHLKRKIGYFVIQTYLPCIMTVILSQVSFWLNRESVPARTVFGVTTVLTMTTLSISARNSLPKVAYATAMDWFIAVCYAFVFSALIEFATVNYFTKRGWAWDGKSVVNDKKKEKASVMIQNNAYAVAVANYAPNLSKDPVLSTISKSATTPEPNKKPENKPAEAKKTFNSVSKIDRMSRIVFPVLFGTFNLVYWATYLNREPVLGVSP
Description: Binding affinity to GABA-A alpha2 (unknown origin).

Assay [2] deals with T2, Gamma-aminobutyric acid receptor subunit alpha-1 (Homo sapiens, UniProt P14867).
T2 sequence (P14867 whole entry): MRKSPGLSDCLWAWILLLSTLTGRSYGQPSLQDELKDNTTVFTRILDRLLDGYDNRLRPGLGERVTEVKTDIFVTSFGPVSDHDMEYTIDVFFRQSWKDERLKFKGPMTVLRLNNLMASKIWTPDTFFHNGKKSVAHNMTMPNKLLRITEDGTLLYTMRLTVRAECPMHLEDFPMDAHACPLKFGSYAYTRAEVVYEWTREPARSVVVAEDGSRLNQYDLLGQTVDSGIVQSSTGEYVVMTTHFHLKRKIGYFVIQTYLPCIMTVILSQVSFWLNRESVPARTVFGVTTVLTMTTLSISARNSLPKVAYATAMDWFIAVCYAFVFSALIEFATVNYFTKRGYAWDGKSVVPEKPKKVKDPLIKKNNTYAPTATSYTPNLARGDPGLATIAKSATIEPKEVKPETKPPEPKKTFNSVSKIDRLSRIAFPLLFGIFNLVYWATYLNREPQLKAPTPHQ
The assay can be described thus: Binding affinity to GABA-A alpha1 (unknown origin).

Assay [3] deals with T3, Gamma-aminobutyric acid receptor subunit alpha-3 (Homo sapiens, UniProt P34903).
T3 sequence (P34903 whole entry): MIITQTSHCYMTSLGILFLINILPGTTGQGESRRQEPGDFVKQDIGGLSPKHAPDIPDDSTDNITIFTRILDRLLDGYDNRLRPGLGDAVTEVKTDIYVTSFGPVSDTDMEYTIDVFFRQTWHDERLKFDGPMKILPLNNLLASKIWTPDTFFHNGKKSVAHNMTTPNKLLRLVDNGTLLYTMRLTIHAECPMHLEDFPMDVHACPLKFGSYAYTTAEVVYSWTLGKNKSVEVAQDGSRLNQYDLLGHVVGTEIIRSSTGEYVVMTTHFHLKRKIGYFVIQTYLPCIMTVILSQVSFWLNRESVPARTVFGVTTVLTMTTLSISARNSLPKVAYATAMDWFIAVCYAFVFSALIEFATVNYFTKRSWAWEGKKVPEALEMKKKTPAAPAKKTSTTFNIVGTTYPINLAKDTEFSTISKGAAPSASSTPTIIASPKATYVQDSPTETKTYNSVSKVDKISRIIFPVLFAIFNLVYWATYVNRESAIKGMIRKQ
The assay can be described thus: Binding affinity to GABA-A alpha3 (unknown origin).

The target of assay [4] is T4, Gamma-aminobutyric acid receptor subunit alpha-1 (Homo sapiens) (UniProt P14867).
T4 sequence (whole entry): T2 sequence (P14867 whole entry)
The assay can be described thus: Negative allosteric modulation of GABA-A alpha1 (unknown origin) assessed as reduction in DMCM induced current relative to control.

In assay [5] the target is T5, Gamma-aminobutyric acid receptor subunit alpha-2 (Homo sapiens) (UniProt P47869).
T5 sequence (whole entry): T1 sequence (P47869 whole entry)
The assay can be described thus: Binding affinity to GABA-A alpha2 (unknown origin) assessed as reduction in DMCM induced current relative to control.

The target of assay [6] is T6, Gamma-aminobutyric acid receptor subunit alpha-3 (Homo sapiens) (UniProt P34903).
T6 sequence (whole entry): T3 sequence (P34903 whole entry)
Description: Binding affinity to GABA-A alpha3 (unknown origin) assessed as reduction in DMCM induced current relative to control.

The subject of the next assay is Rattus norvegicus. The assay can be described thus: In vivo receptor occupancy at GABAA receptor in po dosed Crl:CD Sprague-Dawley rat assessed as brain concentration causing 50% reduction in [3H]-Ro15-4513 receptor labeling after 1 hr. In kind it is functional.

Turning to `Cc1c(F)c(Nc2ccc(-c3cn(C)cn3)cn2)cc2c1ncn2CC1CC1`, the results for the negative-log Ki (pKi) in assay [1], in assay [2] and in assay [3] were 7.49, 6.85 and 7.62, respectively. The Efficacy in assay [4], in assay [5] and in assay [6] was 0% each time. The Occ50 in the assay on Rattus norvegicus turned out to be 1.9 mg/kg.
